Data on 18 compounds can be found in US20250326722A1 (SHANGHAI HANSOH BIOMEDICAL CO., LTD., priority 2022, published 2025).

In series [1] the target is PCSK9 secreted by HepG2 cells (Homo sapiens (Human), UniProt Q8NBP7). The experiment in a line: Effect on the concentration of PCSK9 secreted by HepG2 cells (ELISA). In kind it is cell-based. The settings on record: 48 hours incubation, read-out: Inhibitory activity on PCSK9, IC50. The text has this:
• 1. Experimental objective: To detect the inhibitory effect of the compounds on PCSK9. • 2. Experimental instruments and reagents: • 2.1 Instruments:
• CircuLex Human PCSK9 ELISA kit (MBL: CY-8079); • DMEM (Gibco: 31966-021) • FBS (Sigma: S5394) • Compound plate (Thermo: 1353506) • Complete culture medium: DMEM+10% FBS+1×P/S; • Experimental culture medium: DMEM+10% FBS • Cell strain: HepG2 (ATCC: HB-8065)
A self-adhesive seal was applied, the plate was placed on a plate shaker at room temperature, gently shaken, uniformly mixed, and incubated for 1 hour. • 11) The plate was placed on the plate washer, the washing liquid was set to 350 μL per well, and the plate was washed 4 times repeatedly. • 12) 100 μL/well of an HRP-conjugated detection antibody was added, a self-adhesive seal was applied, and the plate was placed on the plate shaker, well mixed uniformly, and incubated for 1 hour. • 13) The plate was placed on the plate washer, the washing liquid was set to 350 μL per well, and the plate was washed 4 times repeatedly. • 14) 100 μL/well of Substrate reagent was added, and the plate was placed in the dark, applied with a self-adhesive seal, placed on the plate shaker, well mixed uniformly, and incubated for 10-20 minutes. • 15) 100 μL/well of Stop solution (1N H2SO4) was added and mixed uniformly. • 16) The optical density (OD) value in each well was measured in sequence at a wavelength of 450 nm by the microplate reader. Detection was carried out within 30 min after the reaction was stopped.
After the OD values were read by the microplate reader, the OD value of the 0-concentration standard in the standard group was subtracted from the OD values of the standards, control group, and samples to obtain the actual OD values for these wells. A standard curve was plotted with Graphpad and the concentration of the sample was calculated. If the dilution was performed during the sample detection, the calculated sample concentration was necessarily multiplied by the corresponding dilution ratio in the final calculation, which was the actual concentration of the sample. Inhibition rate=(actual concentration in control-actual concentration in sample)/actual concentration in control*100. According to the inhibition rates corresponding to the different concentrations, IC50 was derived by Graphpad.

The nature of series [2]: Pharmacokinetic determination in mice (plasma). In kind it is in vivo, C57BL/6J mice. As to conditions: C57 mice, PO administration, 5 mpk; for AUC(0-inf) / half-life / MRT / Cmax: male, C57BL/6J, mouse, 5 mg/kg; for AUC(0-inf): read-out: Area under the curve AUC0-∞; for half-life: read-out: Half-life t1/2 (converted); for MRT: read-out: Mean residence time MRT; for Cmax: read-out: Plasma concentration Cmax. The protocol: C57BL/6J mice were used as test animals to study the pharmacokinetic behavior of the compounds of the present disclosure in mice (plasma) after oral and intravenous administration.
C57 mice, male, purchased from Shanghai Bk Lab Animal Co., Ltd., with animal production license number (SCXK (Shanghai) 2013-0006 NO.311620400001794).
• Preparation of oral drug: 10% Solutol HS15
10 g of Solutol HS15 solid was weighed, dissolved in 90 mL of pure water, uniformly mixed, stirred, and ultrasonically treated to form a clear solution.
The compound of the present disclosure was weighed and dissolved in this solution, uniformly shaken, and ultrasonically treated for 15 minutes to obtain a colorless clear solution with a concentration of 0.5 mg/mL. • Preparation of intravenous drug: 5% DMSO+10% Solutol HS15+85% PBS […]
3 male C57 mice were fasted overnight and then respectively administered PO at a dose of 5 mg/kg and a volume of 10 mL/kg. […]
Before and after administration of mice, 0.04 mL of blood was collected from the orbit at 0.083 (iv), 0.25, 0.5, 1, 2, 4, 8, and 24 hours, and placed in EDTA-K2 test tubes, which was centrifuged at 6000 rpm at 4° C. for 6 min to separate plasma which was stored at −80° C.; and the […] were fed 4 h after administration.
The final determination results were obtained by using an LCMS/MS method.
The main pharmacokinetic parameters were calculated using WinNonlin 6.1.

A further series addresses PCSK9 protein (Homo sapiens (Human), UniProt Q8NBP7). In words: Binding experiment: surface plasmon resonance (SPR) binding to PCSK9 protein. The text has this:
• 1. Experimental objective: To detect the action of compounds to bind PCSK9 protein by a conventional surface plasmon resonance (SPR) method.
(SPR reads the build-up and loss of mass on a sensor chip optically.)

A word on the IC50: it is the midpoint of a concentration-inhibition curve. For orientation: Kd means the equilibrium constant for the complex coming apart. Read a low Kd as a tighter complex. As a reminder, the MRT is the average time that molecules of a dose stay in the body.

Sequence of PCSK9 secreted by HepG2 cells (Q8NBP7 153-692): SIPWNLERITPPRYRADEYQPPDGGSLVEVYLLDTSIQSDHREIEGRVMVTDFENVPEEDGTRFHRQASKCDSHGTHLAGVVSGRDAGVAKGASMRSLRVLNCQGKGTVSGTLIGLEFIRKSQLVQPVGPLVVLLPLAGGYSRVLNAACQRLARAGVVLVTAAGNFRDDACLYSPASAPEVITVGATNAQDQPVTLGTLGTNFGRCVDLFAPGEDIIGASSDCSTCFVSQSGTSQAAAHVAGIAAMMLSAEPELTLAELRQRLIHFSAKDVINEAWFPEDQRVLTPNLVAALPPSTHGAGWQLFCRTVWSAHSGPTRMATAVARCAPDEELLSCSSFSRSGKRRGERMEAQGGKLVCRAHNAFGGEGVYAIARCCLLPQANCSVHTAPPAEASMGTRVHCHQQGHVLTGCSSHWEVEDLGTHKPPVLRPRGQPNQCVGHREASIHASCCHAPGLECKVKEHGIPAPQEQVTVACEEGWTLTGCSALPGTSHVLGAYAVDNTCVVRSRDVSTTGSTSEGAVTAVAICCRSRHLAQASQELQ
Sequence of PCSK9 secreted by HepG2 cells (Q8NBP7 31-152 partner): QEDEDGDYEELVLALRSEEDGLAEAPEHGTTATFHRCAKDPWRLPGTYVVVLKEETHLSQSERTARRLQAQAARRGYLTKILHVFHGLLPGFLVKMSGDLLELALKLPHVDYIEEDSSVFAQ
Sequence of PCSK9 protein (Q8NBP7 153-692): as the sequence (Q8NBP7 153-692) above

Regarding `O=C1c2cccnc2CN1c1ccc(N[C@H]2CC[C@H](Nc3ncc(C4CC4)cn3)C2)nc1` [Example 128], the IC50 in series [1] was found to be 7.9 µM. For the same compound, in series [2], the “Area under the curve AUC0-∞” value was found to be 10873 ng·h/mL, the “Half-life t1/2” value stood at 4.0 h, the “Mean residence time MRT” value stood at 3.7 h and the “Plasma concentration Cmax” value turned out to be 4307 ng/mL. The same compound returned a Time to peak tmax in series [2] of 0.5 h.
Turning to `CC1(C)c2cccnc2C(=O)N1c1ccc(N[C@H]2CC[C@H](Nc3ncc(C(F)(F)F)nn3)C2)nc1` [Example 146, 5,5-Dimethyl-6-(6-(((1S,3S)-3-((6-(trifluoromethyl)-1,2,4-triazin-3-yl)amino)cyclopentyl)amino)pyridin-3-yl)-5,6-dihydro-7H-pyrrolo[3,4-b]pyridin-7-one], the Kd at PCSK9 protein was 2.5 nM.
Regarding `O=C1c2ncc(F)cc2CN1c1ccc(N[C@H]2CC[C@H](Nc3ncc(C(F)(F)F)nn3)C2)nc1` [Example 153, 3-Fluoro-6-(6-(((1S,3S)-3-((6-(trifluoromethyl)-1,2,4-triazin-3-yl)amino)cyclopentyl)amino)pyridin-3-yl)-5,6-dihydro-7H-pyrrolo[3,4-b]pyridin-7-one], the IC50 in series [1] is 26.4 µM. Moreover, in series [2], the Time to peak tmax stood at 2 h, the AUC(0-inf) worked out at 34600 ng·h/mL, the half-life is 174 min and the MRT came to 4.4 h. Also, the Cmax in series [2] worked out at 6310 ng/mL.
For the compound `Cc1cc2c(cn1)CN(c1ccc(N[C@H]3CC[C@H](Nc4ncc(OC(F)F)cn4)C3)nc1)C2=O` [Example 116, 2-(6-(((1S,3S)-3-((5-(difluoromethoxy)pyrimidin-2-yl)amino)cyclopentyl)amino)-3-yl)-6-methyl-2,3-dihydro-1H-pyrrolo[3,4-c]pyridin-1-one], the IC50 in series [1] is 2.6 µM. In series [2], the Time to peak tmax came to 1 h, the AUC(0-inf) was determined as 42500 ng·h/mL, the half-life is 306 min and the MRT is 7.2 h. The Cmax in series [2] amounted to 4060 ng/mL.
Regarding `O=C1c2cccnc2CN1c1ccc(N[C@H]2CC[C@H](Nc3ncc(C(F)(F)F)cn3)C2)nc1` [Example 133, 6-(6-(((1S,3S)-3-((5-(trifluoromethyl)pyrimidin-2-yl)amino)cyclopentyl)amino)-3-yl)-6,7-dihydro-5H-pyrrolo[3,4-b]pyridin-5-one], the IC50 in series [1] is 1.1 µM. In series [2], the Time to peak tmax is 0.25 h, the AUC(0-inf) was 36800 ng·h/mL, the half-life is 402 min and the MRT is 6.2 h. Moreover, in series [2], the Cmax was determined as 7530 ng/mL.
Regarding `CC(C)(O)c1cccn(-c2ccc(N[C@H]3CC[C@H](Nc4ncc(OC(F)F)cn4)C3)nc2)c1=O` [Example 64, 6′-(((1S,3S)-3-((5-(difluoromethoxy)pyrimidin-2-yl)amino)cyclopentyl)amino]-3-(2-hydroxyprop-2-yl)-2H-[1,3′-bipyridinyl]-2-one], the 50% inhibitory concentration (IC50) in series [1] turned out to be 10 µM.
On the same count and under the same terms, next, `O=S1(=O)c2ncccc2CN1c1ccc(N[C@H]2CC[C@H](Nc3ncc(C(F)(F)F)nn3)C2)nc1` [Example 154, 2-(6-(((1S,3S)-3-((6-(trifluoromethyl)-1,2,4-triazin-3-yl)amino)cyclopentyl)amino)pyridin-3-yl)-2,3-dihydroisothiazolo[5,4-b]pyridine 1,1-dioxide]: 13.2 µM.
In the case of `O=C1c2ncccc2CN1c1ccc(N[C@H]2CC[C@H](Nc3ncc(OC(F)(F)F)cn3)C2)nc1` [Example 142, 6-(6-(((1S,3S)-3-((5-(trifluoromethoxy)pyrimidin-2-yl)amino)cyclopentyl)amino)pyridin-3-yl)-5,6-dihydro-7H-pyrrolo[3,4-b]pyridin-7-one], the IC50 in series [1] was 2.4 µM. Moreover, in series [2], the Time to peak tmax was 2 h, the AUC(0-inf) amounted to 50800 ng·h/mL, the half-life is 390 min and the MRT is 8.1 h. In series [2], the Cmax was 5930 ng/mL.
In the case of `Cc1cc2c(cn1)CN(c1ccc(N[C@H]3CC[C@H](Nc4ncc(C5CC5)nn4)C3)nc1)C2=O` [Example 160], in series [1], the IC50 was determined as 6.2 µM.
The same measure, in the same setting: the result for `Cc1cnn2c(-c3ccc(N[C@H]4CC[C@H](Nc5ncc(OC(F)F)cn5)C4)nc3)cccc12` [Example 117, (1S,3S)—N1-(5-(difluoromethoxy)pyrimidin-2-yl)-N3-(5-(3-methylpyrazolo[1,5-a]pyridin-7-yl)pyridin-2-yl)cyclopentane-1,3-diamine] reads 3.6 µM.
Take `O=C1c2ncccc2CN1c1ccc(N[C@H]2CC[C@H](Nc3ncc(OCC(F)(F)F)cn3)C2)nc1` [Example 125]: the IC50 in series [1] came to 17.3 µM. Also, in series [2], the “Area under the curve AUC0-∞” value was determined as 24298 ng·h/mL, the “Half-life t1/2” value was found to be 7.7 h, the “Mean residence time MRT” value was determined as 4.0 h and the “Plasma concentration Cmax” value amounted to 8545 ng/mL. Besides, the Time to peak tmax in series [2] is 1 h.
In the case of `CC1(C)CCCN(c2ccc(N[C@H]3CC[C@H](Nc4ncc(OC(F)F)cn4)C3)nc2)S1(=O)=O` [Example 120], in series [1], the IC50 was 13.5 µM.
On to `O=C1c2cc(C(F)(F)F)ncc2CN1c1ccc(N[C@H]2CC[C@H](Nc3ncc(C(F)(F)F)nn3)C2)nc1` [Example 152, 6-(Trifluoromethyl)-2-(6-(((1S,3S)-3-((6-(trifluoromethyl)-1,2,4-triazin-3-yl)amino)cyclopentyl)amino)pyridin-3-yl)-2,3-dihydro-1H-pyrrolo[3,4-c]pyridin-1-one], for which, in series [1], the IC50 was 1.5 µM. In series [2], the Time to peak tmax was determined as 2 h, the AUC(0-inf) worked out at 65500 ng·h/mL, the half-life was 576 min and the MRT was 12.1 h. For the same compound, the Cmax in series [2] was 5290 ng/mL.
On to `O=S1(=O)CCCN1c1ccc(N[C@H]2CC[C@H](Nc3ncc(OC(F)F)cn3)C2)nc1` [Example 91, 2-(6-(((1S,3S)-3-((5-(difluoromethoxy)pyrimidin-2-yl)amino)cyclopentyl)amino)pyridin-3-yl)-1,1-dioxoisothiazolane], for which the IC50 in series [1] was found to be 21.8 µM.
Same read-out and setting: the result for `Cc1nc(N[C@H]2CC[C@H](Nc3ccc(N4Cc5cccnc5C4=O)cn3)C2)nc2ccccc12` [Example 131, 6-(6-(((1S,3S)-3-((4-methylquinazolin-2-yl)amino)cyclopentyl)amino)pyridin-3-yl)-5,6-dihydro-7H-pyrrolo[3,4-b]pyridin-7-one] reads 2 µM; that for `FC(F)Oc1cnc(N[C@H]2CC[C@H](Nc3ccc(-c4cccc5ncnn45)cn3)C2)nc1` [Example 139, (1S,3S)—N1-(5-([1,2,4]triazolo[1,5-a]pyridin-5-yl)pyridin-2-yl)-N3-(5-(difluoromethoxy)pyrimidin-2-yl)cyclopentane-1,3-diamine], 10.4 µM; that for `O=c1ccccn1-c1ccc(N[C@H]2CC[C@H](Nc3ncc(C4CC4)nn3)C2)nc1` [Example 63, 6′-(((1S,3S)-3-((6-cyclopropyl-1,2,4-triazin-3-yl)amino)cyclopentyl)amino)-2H-[1,3′-bipyridinyl]-2-one], 10.5 µM.
For the compound `O=C1c2cccnc2CN1c1ccc(N[C@H]2CC[C@H](Nc3ncc(OC(F)(F)Br)cn3)C2)nc1` [Example 123, 6-(6-(((1S,3S)-3-((5-(bromodifluoromethoxy)pyrimidin-2-yl)amino)cyclopentyl)amino)pyridin-3-yl)-6,7-dihydro-5H-pyrrolo[3,4-b]pyridin-5-one], the IC50 in series [1] was found to be 3.3 µM.
